Assay results: patent publication US7169932B2 (priority 2001, dated 2007)
Where two headings read alike, the source gives them in different places.

Columns and labels:
HIV-1 protease (Q7S) = biological target: T1, HIV-1 protease (Q7S) (Human immunodeficiency virus type 1 group M subtype B, UniProt P04585, Q495S); assay: HIV-1 Protease RET Assay; format: biochemical
T1 construct: made in house
Procedure, shortened: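 Ki values came from a RET assay on refolded Q7S protease (2 nM active dimer) cleaving RE(EDANS)SQNYPIVQK(DABCYL)R at 5 μM, read at ex 340/em 490 nm. Reactions ran 12 min at 37 C in 0.1M sodium acetate pH 4.8, 1M NaCl, 5 mM DTT, 10% DMSO; curves were fit with the Morrison tight-binding equation.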

HIV-1 = assay: Cytopathic Effect (CPE) Inhibition Assay (XTT dye reduction); format: cell-based
Experimental: T-cell lines, CEM-SS, and MT-2, and viruses HIV-1 RF and HIV-1 NL4–3 (pNL4–3) were obtained from the National Institutes of Health (AIDS Research and Reference Reagent Program, Bethesda, Md.).
The ability of compounds to protect cells against HIV infection was measured by the […] dye reduction method, essentially as described (See Pauwels, R. Balzarini, J. Baba, M. Snoeck, R. Schols, D. Herdewijn, P. Desmyter, J. and De Clercq, E. 1988, “Rapid and automated tetrazolium-based colorimetric assay for the detection of anti-HIV compounds,”. J Virol Methods., 20: 309–321 and Weislow, O. S. Kiser, R. Fine, D. L. Bader, J. Shoemaker, R. H. and Boyd, M. R. 1989. “New soluble-formazan assay for HIV-1 cytopathic effects: application to high-flux screening of synthetic and natural products for AIDS-antiviral activity”. J. Natl. Cancer Inst. 81:577–586). Subject cells were infected with test virus at an moi of 0.025 to 0.819 or mock infected with medium only and added at 2×10^4 cells per well into 96 well plates containing half-log dilutions of test compounds. Six days later, 50 μl of XTT (1 mg/ml XTT tetrazolium, […] phenazine methosulfate) was added to the wells and the plate was reincubated for four hours. Viability, as determined by the amount of XTT formazan produced, was quantified spectrophotometrically by absorbance at 450 nm. Data from CPE assays were expressed as the percent of formazan produced in compound-treated cells compared to formazan produced in wells of uninfected, compound-free cells. The fifty percent effective concentration (EC50) was calculated as the concentration of compound that effected an increase in the percentage of formazan production in infected, compound-treated cells to 50% of that produced by uninfected, compound-free cells. The 50% cytotoxicity concentration (CC50) was calculated as the concentration of compound that decreased the percentage of formazan produced in uninfected, compound-treated cells to 50% of that produced in uninfected, compound-free cells. The therapeutic index was calculated by dividing the cytotoxicity (CC50) by the antiviral activity (EC50).

[1] = Ave. Ki (nM), RET assay, Q7S enzyme, pH 4.8, 37 C
[2] = Human immunodeficiency virus 1, 144 h, read-out: Ave CPE EC50 (mM)
[3] = Ki, table of drawn compounds, unit inferred

SMILES | Ki (HIV-1 protease (Q7S); [1]) | EC50 (HIV-1; [2]) | Ki (HIV-1 protease (Q7S); [3]) | EC50 (HIV-1; Human immunodeficiency virus 1)
Cc1ccsc1CNC(=O)[C@H]1N(C(=O)[C@@H](O)[C@H](Cc2ccccc2)NC(=O)c2cccc(O)c2C)CSC1(C)C [Example A8] | 0.23 nM | 36 nM | – | –
Cc1ccccc1CNC(=O)[C@H]1N(C(=O)[C@@H](O)[C@H](Cc2ccccc2)NC(=O)c2ccc(F)cc2C)CSC1(C)C [Example B37, (R)-3-((2S,3S)-3-{[1-(4-Fluoro-2-methyl-phenyl)-methanoyl]-amino}-2-hydroxy-4-phenyl-butanoyl)-5,5-dimethyl-thiazolidine-4-carboxylic acid 2-methyl-benzylamide] | 0.11 nM | 736 nM | – | –
CCCNC(=O)[C@H]1N(C(=O)[C@@H](O)[C@H](Cc2ccccc2)NC(=O)c2cccc(F)c2C)CSC1(C)C [Example B31, (R)-3-((2S,3S)-3-{[1-(3-Fluoro-2-methyl-phenyl)-methanoyl]-amino}-2-hydroxy-4-phenyl-butanoyl)-5,5-dimethyl-thiazolidine-4-carboxylic acid propylamide] | 1.5 nM | 1320 nM | – | –
COc1ccc(C(=O)NC(Cc2ccccc2)C(O)C(=O)N2CSC(C)(C)[C@H]2C(=O)NCc2ccccc2C)c(C)c1 (stereo in doubt) [Example B29, 3-[2-Hydroxy-3-(4-methoxy-2-methyl-benzoylamino)-4-phenyl-butyryl]-5,5-dimethyl-thiazolidine-4-carboxylic acid 2-methyl-benzylamide] | 0.12 nM | 1260 nM | – | –
Cc1c(O)cccc1C(=O)N[C@@H](Cc1ccccc1)[C@H](O)C(=O)N1CSC(C)(C)[C@H]1C(=O)NCCCl [Example A49, (R)-3-[(2S,3S)-2-Hydroxy-3-(3-hydroxy-2-methyl-benzoylamino)-4-phenyl-butyryl]-5,5-dimethyl-thiazolidine-4-carboxylic acid (2-chloro-ethyl)-amide] | 1.2 nM | 130 nM | – | –
Cc1c(O)cccc1C(=O)N[C@@H](Cc1ccccc1)[C@H](O)C(=O)N1CSC(C)(C)[C@H]1C(=O)NCc1ccc(F)cc1C(F)(F)F [Example A12] | 1.7 nM | 1090 nM | – | –
Cc1c(O)cccc1C(=O)N[C@@H](Cc1ccccc1)[C@H](O)C(=O)N1CSC(C)(C)[C@H]1C(=O)NCc1ccc(N(C)C)cc1 [Example A15, (R)-3-((2S,3S)-2-Hydroxy-3-{[1-(3-hydroxy-2-methyl-phenyl)-methanoyl]-amino}-4-phenyl-butanoyl)-5,5-dimethyl-thiazolidine-4-carboxylic acid 4-dimethylamino-benzylamide] | 10.9 nM | 130 nM | – | –
Cc1ccccc1CNC(=O)C1N(C(=O)[C@@H](O)[C@H](Cc2ccccc2)NC(=O)c2cccnc2C)CSC1(C)C (stereo partly drawn) [Example B44, N-{(1S,2S)-1-Benzyl-3-[5,5-dimethyl-4-(2-methyl-benzylcarbamoyl)-thiazolidin-3-yl]-2-hydroxy-3-oxo-propyl}-2-methyl-nicotinamide] | 0.76 nM | 629 nM | – | –
Cc1c(O)cccc1C(=O)N[C@@H](Cc1ccccc1)[C@H](O)C(=O)N1CSC(C)(C)[C@H]1C(=O)NCc1ccc(C(F)(F)F)cc1 [Example A9, (R)-3-((2S,3S)-2-Hydroxy-3-{[1-(3-hydroxy-2-methyl-phenyl)-methanoyl]-amino}-4-phenyl-butanoyl)-5,5-dimethyl-thiazolidine-4-carboxylic acid 4-trifluoromethyl-benzylamide] | 4 nM | 565 nM | – | –
Cc1c(O)cccc1C(=O)N[C@@H](Cc1ccccc1)[C@H](O)C(=O)N1CSC(C)(C)[C@H]1C(=O)NCc1ccc(C(F)(F)F)cc1F | – | – | 11.1 nM | 1400 nM
Cc1c(O)cccc1C(=O)N[C@@H](Cc1ccccc1)[C@H](O)C(=O)N1CSC(C)(C)[C@H]1C(=O)NCc1ccc(C(F)(F)F)c(F)c1 [Example A11] | 19 nM | 930 nM | – | –
C/C=C(/C)CNC(=O)[C@H]1N(C(=O)[C@@H](O)[C@H](Cc2ccccc2)NC(=O)c2cccc(O)c2C)CSC1(C)C [Example A34, (R)-3-((2S,3S)-2-Hydroxy-3-{[1-(3-hydroxy-2-methyl-phenyl)-methanoyl]-amino}-4-phenyl-butanoyl)-5,5-dimethyl-thiazolidine-4-carboxylic acid ((Z)-2-methyl-but-2-enyl)-amide] | < 0.1 nM | 36 nM | – | –
Cc1c(O)cccc1C(=O)N[C@@H](Cc1ccccc1)[C@H](O)C(=O)N1CSC(C)(C)C1C(=O)NCCC(C)C (stereo partly drawn) | – | – | ≤ 0.1 nM | 72 nM
CCCOc1cccc(CNC(=O)[C@H]2N(C(=O)[C@@H](O)[C@H](Cc3ccccc3)NC(=O)c3cccc(O)c3C)CSC2(C)C)c1 [Example A43, (R)-3-((2S,3S)-2-Hydroxy-3-{[1-(3-hydroxy-2-methyl-phenyl)-methanoyl]-amino}-4-phenyl-butanoyl)-5,5-dimethyl-thiazolidine-4-carboxylic acid 3-propoxy-benzylamide] | 0.35 nM | 561 nM | – | –
Cc1c(O)cccc1C(=O)N[C@@H](Cc1ccccc1)[C@H](O)C(=O)N1CSC(C)(C)[C@H]1C(=O)NCc1cc(F)cc(F)c1 | – | – | 0.36 nM | 144 nM
Cc1c(O)cccc1C(=O)N[C@@H](Cc1ccccc1)[C@H](O)C(=O)N1CSC(C)(C)[C@H]1C(=O)c1ccccc1 | – | – | 2.5 nM | 1220 nM
C#CCN(C)C(=O)[C@H]1N(C(=O)[C@@H](O)[C@H](Cc2ccccc2)NC(=O)c2cccc(O)c2C)CSC1(C)C [Example A27, (R)-3-((2S,3S)-2-Hydroxy-3-{[1-(3-hydroxy-2-methyl-phenyl)-methanoyl]-amino}-4-phenyl-butanoyl)-5,5-dimethyl-thiazolidine-4-carboxylic acid methyl-prop-2-ynyl-amide] | 0.62 nM | 72 nM | – | –
Cc1ccc(F)cc1CNC(=O)[C@H]1N(C(=O)[C@@H](O)[C@H](Cc2ccccc2)NC(=O)c2cccc(O)c2C)COC1(C)C [Example C9, (S)-3-((2S,3S)-2-Hydroxy-3-{[1-(3-hydroxy-2-methyl-phenyl)-methanoyl]-amino}-4-phenyl-butanoyl)-5,5-dimethyl-oxazolidine-4-carboxylic acid 5-fluoro-2-methyl-benzylamide] | 0.34 nM | 233 nM | – | –
Cc1c(O)cccc1C(=O)N[C@@H](Cc1ccccc1)[C@H](O)C(=O)N1CSC(C)(C)[C@H]1C(=O)NCc1ccc(S(C)(=O)=O)cc1 [Example A13, 3-[2-Hydroxy-3-(3-hydroxy-2-methyl-benzoylamino)-4-phenyl-butyryl]-5,5-dimethyl-thiazolidine-4-carboxylic acid 4-methanesulfonyl-benzamide] | 44.1 nM | > 1000 nM | – | –
Cc1ccccc1CNC(=O)C1N(C(=O)C(O)C(Cc2ccccc2)NC(=O)C2=NNC(=O)CC2)CSC1(C)C (stereo not drawn) [Example B18, 6-Oxo-1,4,5,6-tetrahydro-pyridazine-3-carboxylic acid {1-benzyl-3-[5,5-dimethyl-4-(2-methyl-benzylcarbamoyl)-thiazolidin-3-yl]-2-hydroxy-3-oxo-propyl}-amide] | 0.29 nM | 457 nM | – | –
Cc1ccccc1CNC(=O)[C@H]1N(C(=O)[C@@H](O)[C@H](Cc2ccccc2)NC(=O)c2cnc(C(F)(F)F)[nH]c2=O)CSC1(C)C | – | – | 1700 nM | ≥ 10000 nM
Cc1c(O)cccc1C(=O)N[C@@H](Cc1ccccc1)[C@H](O)C(=O)N1CSC(C)(C)[C@H]1C(=O)NCc1cccc(N)c1 [Example A29, (R)-3-((2S,3S)-2-Hydroxy-3-{[1-(3-hydroxy-2-methyl-phenyl)-methanoyl]-amino}-4-phenyl-butanoyl)-5,5-dimethyl-thiazolidine-4-carboxylic acid 3-amino-benzylamide] | < 0.1 nM | 117 nM | – | –
Cc1ccccc1CNC(=O)[C@H]1N(C(=O)[C@@H](O)[C@H](Cc2ccccc2)NC(=O)c2cccn2C)CSC1(C)C [Example B12, (R)-3-{(2S,3S)-2-Hydroxy-3-[(1-methyl-1H-pyrrole-2-carbonyl)-amino]-4-phenyl-butyryl}-5,5-dimethyl-thiazolidine-4-carboxylic acid 2-methyl-benzylamide] | 0.45 nM | 1400 nM | – | –
Cc1cc(C(=O)N[C@@H](Cc2ccccc2)[C@H](O)C(=O)N2CSC(C)(C)[C@H]2C(=O)NCc2ccc(Cl)cc2C)no1 | – | – | 28 nM | 4130 nM
